According to US20230040770A1, “HETEROCYCLIC COMPOUND AND USE THEREOF” (TAKEDA PHARMACEUTICAL COMPANY LIMITED, priority 2019, published 2023):

Target: T1, human orexin type 2 receptor (Homo sapiens, UniProt O43614)
T1 construct: expressed in transfected cells
T1 sequence (O43614 1-444): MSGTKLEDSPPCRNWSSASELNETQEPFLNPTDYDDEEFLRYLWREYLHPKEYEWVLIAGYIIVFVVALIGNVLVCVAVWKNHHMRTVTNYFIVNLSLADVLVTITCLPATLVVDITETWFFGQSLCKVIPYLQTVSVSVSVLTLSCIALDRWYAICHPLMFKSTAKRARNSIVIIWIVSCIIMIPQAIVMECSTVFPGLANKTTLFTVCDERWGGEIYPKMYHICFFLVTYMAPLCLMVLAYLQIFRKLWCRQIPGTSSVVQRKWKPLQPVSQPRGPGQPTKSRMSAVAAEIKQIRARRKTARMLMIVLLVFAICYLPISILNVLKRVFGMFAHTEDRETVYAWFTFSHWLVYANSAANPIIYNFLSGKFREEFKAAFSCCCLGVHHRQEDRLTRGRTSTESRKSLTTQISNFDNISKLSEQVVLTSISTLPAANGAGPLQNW
Assay: Measurement of orexin type 2 receptor agonist activity (calcium indicator fluorescence, CHO cells forcibly expressing human OX2 receptor)
Format: cell-based
Settings: compound at 3 μM; 0% = DMSO, 100% = orexin A (human) 10 nM
Summary of the method: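 CHO-dhfr cells stably expressing human OX2R, loaded with Fluo-4 AM (30 min 37 °C, then 30 min RT), then given test compound. Calcium fluorescence read by FDSS over ~2 min. Activity (%) scaled from DMSO (0%) to 10 nM final orexin A (100%).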

Question: For `CCS(=O)(=O)N[C@@H]1[C@H](Cc2cccc(-c3cccc(F)c3)c2F)N(C(=O)[C@H]2CCCO2)CC1(F)F` [Example 453, N-{(2S,3R)-2-[(2,3′-difluoro[1,1′-biphenyl]-3-yl)methyl]-4,4-difluoro-1-[(2R)-oxolane-2-carbonyl]pyrrolidin-3-yl}ethanesulfonamide], which “OX2R agonist activity (3 μM, %)” value is on record?
Answer: 85%

Question: Which “OX2R agonist activity (3 μM, %)” value does the source give for `CCS(=O)(=O)N[C@@H]1[C@H](Cc2cccc(-c3cc(F)cc(F)c3)c2F)N(C(=O)[C@H]2CCCO2)CC1(F)F` [Example 454, N-{(2S,3R)-4,4-difluoro-1-[(2R)-oxolane-2-carbonyl]-2-[(2,3′,5′-trifluoro[1,1′-biphenyl]-3-yl)methyl]pyrrolidin-3-yl}ethanesulfonamide] here?
Answer: 84%

Question: `CCS(=O)(=O)N[C@@H]1[C@H](Cc2cccc(-c3cccc(F)c3F)c2F)N(C(=O)[C@H]2CCCO2)CC1(F)F` [Example 455, N-{(2S,3R)-4,4-difluoro-1-[(2R)-oxolane-2-carbonyl]-2-[(2,2′,3′-trifluoro[1,1′-biphenyl]-3-yl)methyl]pyrrolidin-3-yl}ethanesulfonamide] was tested. Which “OX2R agonist activity (3 μM, %)” value did it give?
Answer: 85%

Question: Which “OX2R agonist activity (3 μM, %)” value does the source give for `CCS(=O)(=O)N[C@@H]1[C@H](Cc2cccc(-c3cc(F)ccc3F)c2F)N(C(=O)[C@H]2CCCO2)CC1(F)F` [Example 456, N-{(2S,3R)-4,4-difluoro-1-[(2R)-oxolane-2-carbonyl]-2-[(2,2′,5′-trifluoro[1,1′-biphenyl]-3-yl)methyl]pyrrolidin-3-yl}ethanesulfonamide] here?
Answer: 77%

Question: With `CCS(=O)(=O)N[C@@H]1[C@H](Cc2cccc(-c3cccc(C(F)F)c3)c2F)N(C(=O)[C@H]2CCCO2)CC1(F)F` [Example 457, N-{(2S,3R)-2-{[3′-(difluoromethyl)-2-fluoro[1,1′-biphenyl]-3-yl]methyl}-4,4-difluoro-1-[(2R)-oxolane-2-carbonyl]pyrrolidin-3-yl}ethanesulfonamide] as the molecule, how does the “OX2R agonist activity (3 μM, %)” value read?
Answer: 80%

Question: Which “OX2R agonist activity (3 μM, %)” value does the source give for `CN(C)S(=O)(=O)N[C@H]1[C@@H](F)CN(C(=O)N2CCC2)[C@H]1Cc1cccc(-c2cc(F)cc(F)c2)c1F` [Example 458, N′-{(2S,3R,4S)-1-(azetidine-1-carbonyl)-4-fluoro-2-[(2,3′,5′-trifluoro[1,1′-biphenyl]-3-yl)methyl]pyrrolidin-3-yl}-N,N-dimethylsulfuric diamide] here?
Answer: 84%

Question: For `CCS(=O)(=O)N[C@@H]1[C@H](Cc2cccc(-c3cccc(C)c3)c2F)N(C(=O)C(C)(C)O)CC1(F)F` [Example 465, N-[(2S,3R)-4,4-difluoro-2-[(2-fluoro-3′-methyl[1,1′-biphenyl]-3-yl)methyl]-1-(2-hydroxy-2-methylpropanoyl)pyrrolidin-3-yl]ethanesulfonamide], which “OX2R agonist activity (3 μM, %)” value is on record?
Answer: 106%

Question: With `CCS(=O)(=O)N[C@@H]1[C@H](Cc2cccc(-c3ccc(F)c(C)c3)c2F)N(C(=O)C(C)(C)O)CC1(F)F` [Example 466, N-[(2S,3R)-2-[(2,4′-difluoro-3′-methyl[1,1′-biphenyl]-3-yl)methyl]-4,4-difluoro-1-(2-hydroxy-2-methylpropanoyl)pyrrolidin-3-yl]ethanesulfonamide] as the molecule, how does the “OX2R agonist activity (3 μM, %)” value read?
Answer: 103%

Question: Which “OX2R agonist activity (3 μM, %)” value does the source give for `CCS(=O)(=O)N[C@@H]1[C@H](Cc2cccc(-c3ccc(F)c(F)c3)c2F)N(C(=O)C2CCO2)CC1(F)F` (stereo partly drawn) [Example 467, N-{(2S,3R)-4,4-difluoro-1-(oxetane-2-carbonyl)-2-[(2,3′,4′-trifluoro[1,1′-biphenyl]-3-yl)methyl]pyrrolidin-3-yl}ethanesulfonamide] here?
Answer: 105%

Question: `CCS(=O)(=O)N[C@@H]1[C@H](Cc2cccc(-c3ccc(F)c(F)c3)c2F)N(C(=O)C2CCO2)CC1(F)F` (stereo partly drawn) [Example 468, N-{(2S,3R)-4,4-difluoro-1-(oxetane-2-carbonyl)-2-[(2,3′,4′-trifluoro[1,1′-biphenyl]-3-yl)methyl]pyrrolidin-3-yl}ethanesulfonamide] was tested. Which “OX2R agonist activity (3 μM, %)” value did it give?
Answer: 102%

Question: Which “OX2R agonist activity (3 μM, %)” value does the source give for `CCS(=O)(=O)N[C@@H]1[C@H](Cc2cccc(-c3cc(F)c(F)cc3F)c2F)N(C(=O)C2CCO2)CC1(F)F` (stereo partly drawn) [Example 469, N-{(2S,3R)-4,4-difluroo-1-(oxetane-2-carbonyl)-2-[(2,2′,4′5′-tetrafluoro[1,1′-biphenyl]-3-yl)methyl]pyrrolidin-3-yl}ethanesulfonamide] here?
Answer: 91%

Question: For `CCS(=O)(=O)N[C@@H]1[C@H](Cc2cccc(-c3ccc(F)c(F)c3F)c2F)N(C(=O)C2CCO2)CC1(F)F` (stereo partly drawn) [Example 470, N-{(2S,3R)-4,4-difluoro-1-(oxetane-2-carbonyl)-2-[(2,2′,3′,4′-tetrafluoro[1,1′-biphenyl]-3-yl)methyl]pyrrolidin-3-yl}ethanesulfonamide], which “OX2R agonist activity (3 μM, %)” value is on record?
Answer: 103%

Question: With `CCS(=O)(=O)N[C@@H]1[C@H](Cc2cccc(-c3ccc(F)c(F)c3F)c2F)N(C(=O)C2CCO2)CC1(F)F` (stereo partly drawn) [Example 471, N-{(2S,3R)-4,4-difluoro-1-(oxetane-2-carbonyl)-2-[(2,2′,3′,4′-tetrafluoro[1,1′-biphenyl]-3-yl)methyl]pyrrolidin-3-yl}ethanesulfonamide] as the molecule, how does the “OX2R agonist activity (3 μM, %)” value read?
Answer: 94%

Question: With `CCS(=O)(=O)N[C@@H]1[C@H](Cc2cccc(-c3ccc(F)c(C)c3)c2F)N(C(=O)C2CCO2)CC1(F)F` (stereo partly drawn) [Example 472, N-[(2S,3R)-2-[(2,4′-difluoro-3′-methyl[1,1′-biphenyl]-3-yl)methyl]-4,4-difluoro-1-(oxetane-2-carbonyl)pyrrolidin-3-yl]ethanesulfonamide] as the molecule, how does the “OX2R agonist activity (3 μM, %)” value read?
Answer: 95%

Question: How did the “OX2R agonist activity (3 μM, %)” value turn out when `CCS(=O)(=O)N[C@@H]1[C@H](Cc2cccc(-c3cc(F)c(F)c(F)c3)c2F)N(C(=O)C2CCO2)CC1(F)F` (stereo partly drawn) [Example 473, N-{(2S,3R)-4,4-difluoro-1-(oxetane-2-carbonyl)-2-[(2,3′,4′,5′-tetrafluoro[1,1′-biphenyl]-3-yl)methyl]pyrrolidin-3-yl}ethanesulfonamide] was run?
Answer: 97%

Question: With `CCS(=O)(=O)N[C@@H]1[C@H](Cc2cccc(-c3ccc(F)c(C)c3F)c2F)N(C(=O)C2CCO2)CC1(F)F` (stereo partly drawn) [Example 474, N-{(2S,3R)-4,4-difluoro-1-(oxetane-2-carbonyl)-2-[(2,2′,4′-trifluoro-3′-methyl[1,1′-biphenyl]-3-yl)methyl]pyrroldiin-3-yl}ethanesulfonamide] as the molecule, how does the “OX2R agonist activity (3 μM, %)” value read?
Answer: 96%

Question: With `CCS(=O)(=O)N[C@@H]1[C@H](Cc2cccc(-c3cc(F)c(F)c(F)c3)c2F)N(C(=O)C2CCO2)CC1(F)F` (stereo partly drawn) [Example 475, N-{(2S,3R)-4,4-difluoro-1-(oxetane-2-carbonyl)-2-[(2,3′,4′,5′-tetrafluoro[1,1′-biphenyl]-3-yl)methyl]pyrrolidin-3-yl}ethanesulfonamide] as the molecule, how does the “OX2R agonist activity (3 μM, %)” value read?
Answer: 100%

Question: Which “OX2R agonist activity (3 μM, %)” value does the source give for `CCS(=O)(=O)N[C@@H]1[C@H](Cc2cccc(-c3ccc(F)c(C)c3)c2F)N(C(=O)C2CCO2)CC1(F)F` (stereo partly drawn) [Example 476, N-[(2S,3R)-2-[(2,4′-difluoro-3′-methyl[1,1′-biphenyl]-3-yl)methyl]-4,4-difluoro-1-(oxetane-2-carbonyl)pyrrolidin-3-yl]ethanesulfonamide] here?
Answer: 100%

Question: Which “OX2R agonist activity (3 μM, %)” value does the source give for `CCS(=O)(=O)N[C@@H]1[C@H](Cc2cccc(-c3cc(F)c(F)cc3F)c2F)N(C(=O)C2CCO2)CC1(F)F` (stereo partly drawn) [Example 477, N-{(2S,3R)-4,4-difluoro-1-(oxetane-2-carbonyl)-2-[(2,2′,4′,5′-tetrafluoro[1,1′-biphenyl]-3-yl)methyl]pyrrolidin-3-yl}ethanesulfonamide] here?
Answer: 96%

Question: With `CCS(=O)(=O)N[C@@H]1[C@H](Cc2cccc(-c3ccc(F)c(C)c3F)c2F)N(C(=O)C2CCO2)CC1(F)F` (stereo partly drawn) [Example 478, N-{(2S,3R)-4,4-difluoro-1-(oxetane-2-carbonyl)-2-[(2,2′,4′-trifluoro-3′-methyl[1,1′-biphenyl]-3-yl)methyl]pyrroldiin-3-yl}ethanesulfonamide] as the molecule, how does the “OX2R agonist activity (3 μM, %)” value read?
Answer: 103%

Question: For `O=C(C1CCO1)N1C[C@H](F)[C@H](NS(=O)(=O)C2CC2)[C@@H]1Cc1cccc(-c2cc(F)cc(F)c2)c1F` (stereo partly drawn) [Example 479, N-{(2S,3R,4S)-4-fluoro-1-(oxetane-2-carbonyl)-2-[(2,3′,5′-trifluoro[1,1′-biphenyl]-3-yl)methyl]pyrrolidin-3-yl}cyclopropanesulfonamide], which “OX2R agonist activity (3 μM, %)” value is on record?
Answer: 93%

Question: `O=C(C1CCO1)N1C[C@H](F)[C@H](NS(=O)(=O)C2CC2)[C@@H]1Cc1cccc(-c2cccc(F)c2F)c1F` (stereo partly drawn) [Example 480, N-{(2S,3R,4S)-4-fluoro-1-(oxetane-2-carbonyl)-2-[(2,2′,3′-trifluoro[1,1′-biphenyl]-3-yl)methyl]pyrrolidin-3-yl}cyclopropanesulfonamide] was tested. Which “OX2R agonist activity (3 μM, %)” value did it give?
Answer: 101%

Question: Which “OX2R agonist activity (3 μM, %)” value does the source give for `O=C(C1CCO1)N1C[C@H](F)[C@H](NS(=O)(=O)C2CC2)[C@@H]1Cc1cccc(-c2cc(F)ccc2F)c1F` (stereo partly drawn) [Example 481, N-{(2S,3R,4S)-4-fluoro-1-(oxetane-2-carbonyl)-2-[(2,2′,5′-trifluoro[1,1′-biphenyl]-3-yl)methyl]pyrrolidin-3-yl}cyclopropanesulfonamide] here?
Answer: 104%

Question: Which “OX2R agonist activity (3 μM, %)” value does the source give for `O=C(C1CCO1)N1C[C@H](F)[C@H](NS(=O)(=O)C2CC2)[C@@H]1Cc1cccc(-c2ccccc2)c1F` (stereo partly drawn) [Example 482, N-[(2S,3R,4S)-4-fluoro-2-[(2-fluoro[1,1′-biphenyl]-3-yl)methyl]-1-(oxetane-2-carbonyl)pyrrolidin-3-yl]cyclopropanesulfonamide] here?
Answer: 100%
